In ChEMBL document CHEMBL1130479, “7-O-acylpaclitaxel analogues: potential probes to map the paclitaxel binding site” (1997):

Tests used:
B16 = assay: The cytotoxic activity was measured against B16 melanoma cells, activity expressed as ED50 of compound/ ED50 of paclitaxel; format: functional, Mus musculus
[1] = The activity to inhibit microtubule assembly, activity expressed as ED50 of compound/ ED50 of paclitaxel; format: functional

CC(=O)O[C@H]1C(=O)[C@]2(C)[C@@H](OC(=O)c3cccc(N)c3)C[C@H]3OC[C@@]3(OC(C)=O)[C@H]2[C@H](OC(=O)c2ccccc2)[C@]2(O)C[C@H](OC(=O)[C@H](O)[C@@H](NC(=O)c3ccccc3)c3ccccc3)C(C)=C1C2(C)C
Cytotoxicity (B16): 7.1
Activity [1]: 1.5

CC(=O)O[C@H]1C(=O)[C@]2(C)[C@@H](OC(=O)c3ccc(N=[N+]=[N-])cc3)C[C@H]3OC[C@@]3(OC(C)=O)[C@H]2[C@H](OC(=O)c2ccccc2)[C@]2(O)C[C@H](OC(=O)[C@H](O)[C@@H](NC(=O)c3ccccc3)c3ccccc3)C(C)=C1C2(C)C
Cytotoxicity (B16): 30
Activity [1]: 21

CC(=O)O[C@H]1C(=O)[C@@]2(C)[C@H]([C@H](OC(=O)c3ccccc3)[C@]3(O)C[C@H](OC(=O)[C@H](O)[C@@H](NC(=O)c4ccccc4)c4ccccc4)C(C)=C1C3(C)C)[C@]1(OC(C)=O)CO[C@@H]1C[C@@H]2O [PACLITAXEL]
Cytotoxicity (B16): 1
Activity [1]: 1

CC(=O)O[C@H]1C(=O)[C@]2(C)[C@@H](OC(=O)c3ccc(N)cc3)C[C@H]3OC[C@@]3(OC(C)=O)[C@H]2[C@H](OC(=O)c2ccccc2)[C@]2(O)C[C@H](OC(=O)[C@H](O)[C@@H](NC(=O)c3ccccc3)c3ccccc3)C(C)=C1C2(C)C
Cytotoxicity (B16): 17
Activity [1]: 1.7

CC(=O)O[C@H]1C(=O)[C@]2(C)[C@@H](OC(=O)c3cc(N)cc([N+](=O)[O-])c3)C[C@H]3OC[C@@]3(OC(C)=O)[C@H]2[C@H](OC(=O)c2ccccc2)[C@]2(O)C[C@H](OC(=O)[C@H](O)[C@@H](NC(=O)c3ccccc3)c3ccccc3)C(C)=C1C2(C)C
Cytotoxicity (B16): 16
Activity [1]: 4.4

CC(=O)O[C@H]1C(=O)[C@]2(C)[C@@H](OC(=O)c3ccccc3)C[C@H]3OC[C@@]3(OC(C)=O)[C@H]2[C@H](OC(=O)c2ccccc2)[C@]2(O)C[C@H](OC(=O)[C@H](O)[C@@H](NC(=O)c3ccccc3)c3ccccc3)C(C)=C1C2(C)C [PACLITAXEL C7 BENZOIC ACID ESTER]
Cytotoxicity (B16): 9.7
Activity [1]: 4.1

CC(=O)O[C@H]1C(=O)[C@]2(C)[C@@H](OC(=O)c3cccc(N=[N+]=[N-])c3)C[C@H]3OC[C@@]3(OC(C)=O)[C@H]2[C@H](OC(=O)c2ccccc2)[C@]2(O)C[C@H](OC(=O)[C@H](O)[C@@H](NC(=O)c3ccccc3)c3ccccc3)C(C)=C1C2(C)C
Activity [1]: > 24

CC(=O)O[C@H]1C(=O)[C@]2(C)[C@@H](OC(=O)CCl)C[C@H]3OC[C@@]3(OC(C)=O)[C@H]2[C@H](OC(=O)c2ccccc2)[C@]2(O)C[C@H](OC(=O)[C@H](O)[C@@H](NC(=O)c3ccccc3)c3ccccc3)C(C)=C1C2(C)C
Cytotoxicity (B16): 0.92
Activity [1]: 1.6

CC(=O)O[C@H]1C(=O)[C@]2(C)[C@@H](OC(=O)c3cccc(N(C)C)c3)C[C@H]3OC[C@@]3(OC(C)=O)[C@H]2[C@H](OC(=O)c2ccccc2)[C@]2(O)C[C@H](OC(=O)[C@H](O)[C@@H](NC(=O)c3ccccc3)c3ccccc3)C(C)=C1C2(C)C
Activity [1]: 22

CC(=O)O[C@H]1C(=O)[C@@]2(C)C([C@H](OC(=O)c3ccccc3)[C@]3(O)C[C@H](OC(=O)[C@H](O)[C@@H](NC(=O)c4ccccc4)c4ccccc4)C(C)=C1C3(C)C)[C@]1(OC(C)=O)CO[C@@H]1C[C@@H]2OC(=O)c1cccc(C(C)C)c1 (stereo not given in full)
Activity [1]: > 32

CC(=O)O[C@H]1C(=O)[C@]2(C)[C@@H](OC(=O)c3cc(N=[N+]=[N-])cc([N+](=O)[O-])c3)C[C@H]3OC[C@@]3(OC(C)=O)[C@H]2[C@H](OC(=O)c2ccccc2)[C@]2(O)C[C@H](OC(=O)[C@H](O)[C@@H](NC(=O)c3ccccc3)c3ccccc3)C(C)=C1C2(C)C
Activity [1]: > 24

CC(=O)O[C@H]1C(=O)[C@]2(C)[C@@H](OC(=O)CI)C[C@H]3OC[C@@]3(OC(C)=O)[C@H]2[C@H](OC(=O)c2ccccc2)[C@]2(O)C[C@H](OC(=O)[C@H](O)[C@@H](NC(=O)c3ccccc3)c3ccccc3)C(C)=C1C2(C)C
Cytotoxicity (B16): 3.7
Activity [1]: 3.3
